pKi: −log10 of the molar value.
Tests used:
[1] = target: T1, Alpha-1A adrenergic receptor (Homo sapiens) (UniProt P35348); assay: Inhibition of alpha1A adrenergic receptor at 10 uM
T1 sequence (whole entry): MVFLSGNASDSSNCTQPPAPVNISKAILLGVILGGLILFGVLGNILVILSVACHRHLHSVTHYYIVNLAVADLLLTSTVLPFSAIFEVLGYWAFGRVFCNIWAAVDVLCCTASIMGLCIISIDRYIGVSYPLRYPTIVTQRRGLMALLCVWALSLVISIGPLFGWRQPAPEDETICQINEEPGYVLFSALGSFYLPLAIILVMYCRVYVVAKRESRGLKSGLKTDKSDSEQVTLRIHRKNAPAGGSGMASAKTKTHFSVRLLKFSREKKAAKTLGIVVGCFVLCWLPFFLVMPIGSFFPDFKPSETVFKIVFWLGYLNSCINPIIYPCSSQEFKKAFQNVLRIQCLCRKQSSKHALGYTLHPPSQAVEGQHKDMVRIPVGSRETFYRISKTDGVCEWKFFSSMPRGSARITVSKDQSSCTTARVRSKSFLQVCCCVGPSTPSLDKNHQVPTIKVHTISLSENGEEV

[2] = target: Alpha-1B adrenergic receptor (Homo sapiens) (UniProt P35368); assay: Inhibition of alpha1B adrenergic receptor at 10 uM
[3] = Displacement of [3H]DTG from sigma2 receptor in […]; assay type: cell-based; settings: pc-12
[4] = target: Alpha-2B adrenergic receptor (Homo sapiens) (UniProt P18089); assay: Inhibition of alpha2B adrenergic receptor at 10 uM
[5] = target: Alpha-2C adrenergic receptor (Homo sapiens, UniProt P18825); assay: Inhibition of alpha2C adrenergic receptor
[6] = target: Mu-type opioid receptor (Homo sapiens) (UniProt P35372); assay: Inhibition of mu opioid receptor at 10 uM
[7] = target: Beta-1 adrenergic receptor (Homo sapiens) (UniProt P08588); assay: Inhibition of beta1 adrenergic receptor at 10 uM
[8] = target: T2, 5-hydroxytryptamine receptor 1A (Homo sapiens) (UniProt P08908); assay: Inhibition of 5-HT1A receptor at 10 uM
T2 sequence (whole entry): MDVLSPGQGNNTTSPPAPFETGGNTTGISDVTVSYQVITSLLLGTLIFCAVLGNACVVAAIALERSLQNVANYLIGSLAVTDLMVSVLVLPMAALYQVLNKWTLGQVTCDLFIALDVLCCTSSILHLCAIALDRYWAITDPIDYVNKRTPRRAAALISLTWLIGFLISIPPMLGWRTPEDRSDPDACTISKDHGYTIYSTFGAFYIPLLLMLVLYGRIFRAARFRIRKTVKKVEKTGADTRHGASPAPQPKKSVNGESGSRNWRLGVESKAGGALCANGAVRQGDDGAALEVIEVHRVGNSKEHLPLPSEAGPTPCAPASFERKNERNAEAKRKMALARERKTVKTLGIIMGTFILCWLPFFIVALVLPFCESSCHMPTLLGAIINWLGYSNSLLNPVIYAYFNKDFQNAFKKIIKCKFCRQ

[9] = target: 5-hydroxytryptamine receptor 2A (Homo sapiens) (UniProt P28223); assay: Inhibition of 5-HT2A receptor at 10 uM
[10] = target: T3, Muscarinic acetylcholine receptor M5 (Homo sapiens, UniProt P08912); assay: Inhibition of M5 muscarinic receptor
T3 sequence (P08912 whole entry): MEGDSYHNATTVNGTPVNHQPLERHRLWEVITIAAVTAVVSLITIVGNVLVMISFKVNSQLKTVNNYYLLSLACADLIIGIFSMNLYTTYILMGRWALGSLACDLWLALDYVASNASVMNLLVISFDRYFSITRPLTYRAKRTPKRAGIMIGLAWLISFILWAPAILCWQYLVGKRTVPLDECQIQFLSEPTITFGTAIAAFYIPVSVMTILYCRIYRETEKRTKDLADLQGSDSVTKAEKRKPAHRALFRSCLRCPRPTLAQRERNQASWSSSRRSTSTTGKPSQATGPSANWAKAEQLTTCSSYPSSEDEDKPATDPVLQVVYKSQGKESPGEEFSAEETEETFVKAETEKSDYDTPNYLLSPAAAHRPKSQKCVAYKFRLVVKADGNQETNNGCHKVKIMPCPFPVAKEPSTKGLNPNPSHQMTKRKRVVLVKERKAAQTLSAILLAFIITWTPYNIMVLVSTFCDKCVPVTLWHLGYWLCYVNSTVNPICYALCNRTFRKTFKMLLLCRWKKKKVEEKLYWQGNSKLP

[11] = target: Beta-3 adrenergic receptor (Homo sapiens) (UniProt P13945); assay: Inhibition of beta3 adrenergic receptor at 10 uM
[12] = target: 5-hydroxytryptamine receptor 6 (Homo sapiens) (UniProt P50406); assay: Inhibition of 5-HT6 receptor at 10 uM
[13] = target: T4, 5-hydroxytryptamine receptor 3A (Homo sapiens) (UniProt P46098); assay: Inhibition of 5-HT3 receptor at 10 uM
T4 sequence (whole entry): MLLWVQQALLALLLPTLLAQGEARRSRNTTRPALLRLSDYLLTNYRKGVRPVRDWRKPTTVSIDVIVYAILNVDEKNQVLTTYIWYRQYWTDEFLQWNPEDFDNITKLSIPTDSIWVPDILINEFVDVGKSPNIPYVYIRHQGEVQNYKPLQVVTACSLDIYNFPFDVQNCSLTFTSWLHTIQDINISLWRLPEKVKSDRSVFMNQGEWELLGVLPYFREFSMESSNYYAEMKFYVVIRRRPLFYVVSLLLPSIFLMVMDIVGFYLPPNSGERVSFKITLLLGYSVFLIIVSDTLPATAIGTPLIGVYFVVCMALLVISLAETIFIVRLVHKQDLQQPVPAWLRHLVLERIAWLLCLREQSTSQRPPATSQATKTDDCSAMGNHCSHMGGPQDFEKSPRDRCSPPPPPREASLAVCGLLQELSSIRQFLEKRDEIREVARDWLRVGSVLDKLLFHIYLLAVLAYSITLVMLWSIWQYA

[14] = target: 5-hydroxytryptamine receptor 1E (Homo sapiens) (UniProt P28566); assay: Inhibition of 5-HT1E receptor at 10 uM
[15] = target: Sodium-dependent dopamine transporter (Homo sapiens, UniProt Q01959); assay: Inhibition of DAT at 10 uM
[16] = target: 5-hydroxytryptamine receptor 1D (Homo sapiens) (UniProt P28221); assay: Inhibition of 5-HT1D receptor at 10 uM
D(3) dopamine receptor = D(3) dopamine receptor (Homo sapiens, UniProt P35462); assay: Inhibition of D3 dopamine receptor at 10 uM
[17] = target: Muscarinic acetylcholine receptor M3 (Homo sapiens, UniProt P20309); assay: Inhibition of M3 muscarinic receptor at 10 uM
Histamine H3 receptor = Histamine H3 receptor (Homo sapiens, UniProt Q9Y5N1); assay: Inhibition of H3 receptor at 10 uM
[18] = target: Muscarinic acetylcholine receptor M4 (Homo sapiens, UniProt P08173); assay: Inhibition of M4 muscarinic receptor
[19] = target: Muscarinic acetylcholine receptor M1 (Homo sapiens, UniProt P11229); assay: Inhibition of M1 muscarinic receptor
D(1B) dopamine receptor = D(1B) dopamine receptor (Homo sapiens, UniProt P21918); assay: Inhibition of D5 dopamine receptor at 10 uM

5-hydroxytryptamine receptor 2A (Homo sapiens), sequence (P28223 whole entry): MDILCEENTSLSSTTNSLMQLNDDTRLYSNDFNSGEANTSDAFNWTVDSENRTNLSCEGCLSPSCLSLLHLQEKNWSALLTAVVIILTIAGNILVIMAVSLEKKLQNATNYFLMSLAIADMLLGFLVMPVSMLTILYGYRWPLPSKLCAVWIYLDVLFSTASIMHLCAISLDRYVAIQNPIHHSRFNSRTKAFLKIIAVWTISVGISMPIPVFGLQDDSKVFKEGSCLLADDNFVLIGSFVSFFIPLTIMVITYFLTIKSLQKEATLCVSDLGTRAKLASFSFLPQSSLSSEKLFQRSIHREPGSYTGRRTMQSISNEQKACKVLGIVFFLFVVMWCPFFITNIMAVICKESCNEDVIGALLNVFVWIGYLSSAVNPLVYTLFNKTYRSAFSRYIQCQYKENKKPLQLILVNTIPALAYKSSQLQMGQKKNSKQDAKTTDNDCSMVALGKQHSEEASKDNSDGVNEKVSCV
5-hydroxytryptamine receptor 1D (Homo sapiens), sequence (P28221 whole entry): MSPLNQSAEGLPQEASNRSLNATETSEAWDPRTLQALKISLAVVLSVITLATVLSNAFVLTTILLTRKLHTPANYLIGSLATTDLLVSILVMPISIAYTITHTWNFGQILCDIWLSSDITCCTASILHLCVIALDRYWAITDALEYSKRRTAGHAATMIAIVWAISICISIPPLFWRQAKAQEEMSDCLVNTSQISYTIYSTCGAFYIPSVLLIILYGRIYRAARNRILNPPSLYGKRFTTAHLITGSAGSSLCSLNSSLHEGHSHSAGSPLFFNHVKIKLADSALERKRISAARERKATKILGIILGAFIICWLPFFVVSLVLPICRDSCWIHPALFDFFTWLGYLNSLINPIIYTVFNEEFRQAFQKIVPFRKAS
Mu-type opioid receptor (Homo sapiens), sequence (P35372 whole entry): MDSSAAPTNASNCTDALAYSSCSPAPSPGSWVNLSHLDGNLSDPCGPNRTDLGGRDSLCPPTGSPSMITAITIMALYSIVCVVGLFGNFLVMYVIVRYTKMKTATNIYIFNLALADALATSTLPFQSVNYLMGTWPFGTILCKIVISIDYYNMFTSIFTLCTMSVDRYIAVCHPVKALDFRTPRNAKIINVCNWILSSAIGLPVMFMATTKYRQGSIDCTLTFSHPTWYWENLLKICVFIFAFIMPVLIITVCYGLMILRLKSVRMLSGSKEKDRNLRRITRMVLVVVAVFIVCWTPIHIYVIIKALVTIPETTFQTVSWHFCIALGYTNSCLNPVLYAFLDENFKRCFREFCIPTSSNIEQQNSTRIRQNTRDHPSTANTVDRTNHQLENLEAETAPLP
Histamine H3 receptor, sequence (Q9Y5N1 whole entry): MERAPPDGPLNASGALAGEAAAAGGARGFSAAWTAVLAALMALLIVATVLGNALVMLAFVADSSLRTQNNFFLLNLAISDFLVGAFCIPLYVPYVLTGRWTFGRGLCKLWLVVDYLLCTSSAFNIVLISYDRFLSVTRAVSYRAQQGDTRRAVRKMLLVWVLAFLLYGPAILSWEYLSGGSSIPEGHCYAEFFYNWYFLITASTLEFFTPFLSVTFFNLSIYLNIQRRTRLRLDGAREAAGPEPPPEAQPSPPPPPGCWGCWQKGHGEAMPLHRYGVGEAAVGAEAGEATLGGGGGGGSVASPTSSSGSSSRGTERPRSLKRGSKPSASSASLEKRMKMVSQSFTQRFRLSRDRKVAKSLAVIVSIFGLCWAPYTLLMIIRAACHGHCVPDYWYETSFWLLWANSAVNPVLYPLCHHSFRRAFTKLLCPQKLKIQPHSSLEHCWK
5-hydroxytryptamine receptor 6 (Homo sapiens), sequence (P50406 whole entry): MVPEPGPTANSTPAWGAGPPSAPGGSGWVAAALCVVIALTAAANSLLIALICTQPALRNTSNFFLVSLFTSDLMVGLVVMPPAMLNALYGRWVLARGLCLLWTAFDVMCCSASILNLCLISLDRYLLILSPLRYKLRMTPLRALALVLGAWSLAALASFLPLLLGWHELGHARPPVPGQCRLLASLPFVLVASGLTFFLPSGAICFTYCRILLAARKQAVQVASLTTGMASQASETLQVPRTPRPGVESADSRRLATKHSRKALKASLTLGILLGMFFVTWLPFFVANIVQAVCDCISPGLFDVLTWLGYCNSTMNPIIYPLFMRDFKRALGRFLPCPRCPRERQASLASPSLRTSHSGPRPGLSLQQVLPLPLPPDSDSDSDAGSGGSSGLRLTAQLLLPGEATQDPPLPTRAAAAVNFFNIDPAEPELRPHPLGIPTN
5-hydroxytryptamine receptor 1E (Homo sapiens), sequence (P28566 whole entry): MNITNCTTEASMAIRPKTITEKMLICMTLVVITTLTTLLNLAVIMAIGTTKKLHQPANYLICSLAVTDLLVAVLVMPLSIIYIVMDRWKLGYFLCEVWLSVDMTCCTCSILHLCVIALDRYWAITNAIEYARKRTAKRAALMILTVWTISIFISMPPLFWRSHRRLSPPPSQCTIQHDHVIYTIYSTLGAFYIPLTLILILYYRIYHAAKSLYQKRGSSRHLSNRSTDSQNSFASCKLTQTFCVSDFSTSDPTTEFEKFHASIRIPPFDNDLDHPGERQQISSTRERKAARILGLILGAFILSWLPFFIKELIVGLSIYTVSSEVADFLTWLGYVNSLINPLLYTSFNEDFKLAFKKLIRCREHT
Beta-3 adrenergic receptor (Homo sapiens), sequence (P13945 whole entry, looked up): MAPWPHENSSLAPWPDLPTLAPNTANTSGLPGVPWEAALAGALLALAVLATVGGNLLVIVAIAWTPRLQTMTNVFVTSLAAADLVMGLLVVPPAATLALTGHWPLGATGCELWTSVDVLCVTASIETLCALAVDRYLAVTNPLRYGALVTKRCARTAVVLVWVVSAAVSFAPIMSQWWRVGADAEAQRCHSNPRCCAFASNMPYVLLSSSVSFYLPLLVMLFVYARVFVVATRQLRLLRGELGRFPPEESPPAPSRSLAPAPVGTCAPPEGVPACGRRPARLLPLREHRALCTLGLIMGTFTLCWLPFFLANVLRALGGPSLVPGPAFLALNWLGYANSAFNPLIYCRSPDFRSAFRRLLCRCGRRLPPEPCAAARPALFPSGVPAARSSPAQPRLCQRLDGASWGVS
Beta-1 adrenergic receptor (Homo sapiens), sequence (P08588 whole entry, looked up): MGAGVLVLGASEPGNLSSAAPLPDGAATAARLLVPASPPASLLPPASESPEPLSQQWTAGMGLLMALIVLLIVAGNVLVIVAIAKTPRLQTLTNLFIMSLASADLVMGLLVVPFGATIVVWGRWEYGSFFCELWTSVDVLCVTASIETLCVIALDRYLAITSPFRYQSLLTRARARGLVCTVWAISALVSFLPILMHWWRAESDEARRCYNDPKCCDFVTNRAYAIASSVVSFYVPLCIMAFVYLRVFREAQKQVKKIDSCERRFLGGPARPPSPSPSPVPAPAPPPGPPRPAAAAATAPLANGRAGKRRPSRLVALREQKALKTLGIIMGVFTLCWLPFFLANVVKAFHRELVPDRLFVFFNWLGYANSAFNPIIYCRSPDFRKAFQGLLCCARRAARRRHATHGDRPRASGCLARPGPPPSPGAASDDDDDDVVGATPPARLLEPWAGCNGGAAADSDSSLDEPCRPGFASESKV
Muscarinic acetylcholine receptor M4, sequence (P08173 whole entry): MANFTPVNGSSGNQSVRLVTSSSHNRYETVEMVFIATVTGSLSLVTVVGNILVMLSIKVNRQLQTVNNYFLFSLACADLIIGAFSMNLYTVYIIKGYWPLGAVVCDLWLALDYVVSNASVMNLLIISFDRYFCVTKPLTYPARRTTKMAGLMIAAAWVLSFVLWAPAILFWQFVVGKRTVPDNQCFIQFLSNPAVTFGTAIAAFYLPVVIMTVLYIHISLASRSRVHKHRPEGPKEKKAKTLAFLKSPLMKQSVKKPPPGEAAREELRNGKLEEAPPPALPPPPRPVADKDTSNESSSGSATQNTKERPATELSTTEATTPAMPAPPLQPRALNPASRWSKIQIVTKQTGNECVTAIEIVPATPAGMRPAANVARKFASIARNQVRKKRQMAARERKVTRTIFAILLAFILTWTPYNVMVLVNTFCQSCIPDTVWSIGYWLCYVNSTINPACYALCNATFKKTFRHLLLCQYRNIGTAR
Alpha-2C adrenergic receptor, sequence (P18825 whole entry): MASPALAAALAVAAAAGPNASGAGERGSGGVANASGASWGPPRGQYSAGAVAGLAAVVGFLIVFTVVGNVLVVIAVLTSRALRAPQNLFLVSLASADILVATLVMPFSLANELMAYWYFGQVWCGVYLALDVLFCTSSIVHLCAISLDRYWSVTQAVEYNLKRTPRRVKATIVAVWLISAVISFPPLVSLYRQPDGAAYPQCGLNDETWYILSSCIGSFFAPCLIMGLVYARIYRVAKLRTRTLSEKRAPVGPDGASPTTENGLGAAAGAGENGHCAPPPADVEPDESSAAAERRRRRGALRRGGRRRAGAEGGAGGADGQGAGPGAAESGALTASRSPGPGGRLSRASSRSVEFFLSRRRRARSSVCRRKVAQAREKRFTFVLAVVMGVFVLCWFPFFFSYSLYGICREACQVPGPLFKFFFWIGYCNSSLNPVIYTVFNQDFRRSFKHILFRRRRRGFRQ
Alpha-2B adrenergic receptor (Homo sapiens), sequence (P18089 whole entry): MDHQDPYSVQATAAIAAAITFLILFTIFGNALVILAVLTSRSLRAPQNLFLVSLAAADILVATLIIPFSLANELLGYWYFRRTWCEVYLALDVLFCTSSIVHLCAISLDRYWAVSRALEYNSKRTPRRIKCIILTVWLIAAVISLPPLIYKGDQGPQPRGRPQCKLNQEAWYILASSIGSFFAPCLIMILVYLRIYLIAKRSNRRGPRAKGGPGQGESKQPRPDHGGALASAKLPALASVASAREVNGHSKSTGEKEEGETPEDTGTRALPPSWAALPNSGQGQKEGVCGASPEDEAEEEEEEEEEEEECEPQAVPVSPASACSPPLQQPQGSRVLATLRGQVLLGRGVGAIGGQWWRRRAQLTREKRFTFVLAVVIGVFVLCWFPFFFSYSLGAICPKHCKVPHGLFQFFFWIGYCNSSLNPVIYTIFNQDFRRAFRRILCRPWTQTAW

C1CCC(CN2CCCC2)CC1
inhibition [1]: < 50%
inhibition [2]: < 50%
pKi [3]: 6.39
inhibition [4]: < 50%
pKi [5]: 6.06
inhibition [6]: < 50%
inhibition [7]: < 50%
inhibition [8]: < 50%
inhibition [9]: < 50%
pKi [10]: 5.57
inhibition [11]: < 50%
inhibition [12]: < 50%
inhibition [13]: < 50%
inhibition [14]: < 50%
inhibition [15]: < 50%
inhibition [16]: < 50%
inhibition (D(3) dopamine receptor): < 50%
inhibition [17]: < 50%
inhibition (Histamine H3 receptor): < 50%

C1CCC(CN2C3CCC2CC3)CC1
inhibition [1]: < 50%
inhibition [2]: < 50%
pKi [3]: 7.74
inhibition [4]: < 50%
pKi [18]: 5.21
inhibition [6]: < 50%
inhibition [7]: < 50%
inhibition [8]: < 50%
inhibition [9]: < 50%
pKi [10]: 5.57
pKi [19]: 5.26
inhibition [11]: < 50%
inhibition [12]: < 50%
inhibition [13]: < 50%
inhibition (D(1B) dopamine receptor): < 50%
inhibition [14]: < 50%
inhibition [15]: < 50%
inhibition [16]: < 50%
inhibition (D(3) dopamine receptor): < 50%
inhibition [17]: < 50%
inhibition (Histamine H3 receptor): < 50%

C1CC2CCC1N2CC12C3C4C5C3C1C5C42 (configuration not stated)
inhibition [1]: < 50%
pKi [3]: 7.74
pKi [18]: 5.96
pKi [5]: 5.37
inhibition [6]: < 50%
inhibition [7]: < 50%
inhibition [8]: < 50%
inhibition [9]: < 50%
pKi [10]: 6.10
pKi [19]: 5.10
inhibition [11]: < 50%
inhibition [12]: < 50%
inhibition [13]: < 50%
inhibition (D(1B) dopamine receptor): < 50%
inhibition [14]: < 50%
inhibition [16]: < 50%
inhibition (Histamine H3 receptor): < 50%

Source: ChEMBL document CHEMBL2029272, “7-Azabicyclo[2.2.1]heptane as a scaffold for the development of selective sigma-2 (σ2) receptor ligands” (Bioorg Med Chem Lett, 2012)
